According to patent US20250177448A1, “NEW USE OF PEG-PHOSPHOLIPID MOLECULES” (ICOAT MEDICAL AB, priority 2022, published 2025):

Tests used:
Concanavalin A = settings: HUVEC, 0.5 mg/ml, without plasma exposure
Experimental: HUVEC cells were cultured with endothelial cell culture medium with supplements (Promocell) in cell culture flasks (Thermofisher Scientific) and Petri dishes (NUNC). The cells were detached using trypsin EDTA buffer for flowcytometry analysis (BD accuri C6 Serial no. 5173). The cells were rinsed with PBS (10 mL) by centrifugation (120×g, 4° C., 3 min) once and fresh medium was added to the detached cells.
In addition, HUVEC cells were incubated with PEG-phospholipid (0.5 mg/ml), with 10 mM free PEG (5 kDa), or PBS (control) at RT for 45 min followed by washing with PBS, and incubation in human serum with EDTA-plasma as control, both diluted 1:50 in PBS, for 30 min at 37° C. After washing, lectin pathway recognition molecules collectin-11 (CL-11), and mannan binding lectin (MBL), were detected using the FITC-labelled and isotype control antibodies as given in Table 1. […] In addition, FITC-labelled concavalin A (a lectin of broad specificity) was incubated with coated and native HUVECs (without prior exposure to plasma) at a concentration of 50 g/ml.
After incubation with detecting antibodies, the cells were washed with PBS. All samples were analyzed on an Accuri C6 flow cytometer, unstained cells were used to gate the endothelial cell population. 10,000 events were recorded and additional controls in the form of isotype control and unstained control were ran in parallel. […]

red blood cells = test: Cell lysis of red blood cells caused by PEG-phospholipid coating; format: cell-based; settings: at the levels able to efficiently mask surface antigens on red blood cells
Experimental: In order to investigate if the PEG-phospholipid was able to protect against complement mediated lysis, RBCs were used from 13 different donors who were typed for Rh complex and ABO antigens. RBCs were isolated and preincubated with PEG-phospholipid at varying concentrations, free PEG or PBS as described above. Cells were then washed (and the supernatant stored for analysis) with PBS (800 g×5 min, RT) and incubated with human serum (where the complement system is active) for 20 minutes at 37° C. They were then spun down again (800 g×5 min) and the supernatant was collected for analysis of hemolysis. The RBCs were analyzed for complement fixation (cells were incubated for 10 min with a
FITC-labelled anti-C3c antibody). RBCs were resuspended with PBS (1 mL) for flow cytometry measurements. […] Post analysis processing was carried out in FlowJo (BD). The supernatant was analyzed on a variable wavelength detection plate reader, Synergy HTX, for the absorbance at 540 nm. RBCs, which were lysed via osmotic stress, were run in parallel as positive controls. The background absorbance at 540 nm from PBS containing no cells was subtracted and the difference in absorbance between cells coated with PEG-phospholipid or PBS was then calculated.

[1] = system: porcine kidney transplant, ischemia reperfusion injury
Experimental: TAT was measured in both human and porcine plasma using an anti-human thrombin monoclonal antibody was used for capturing and an HRP-coupled anti-human antithrombin (AT) antibody was used for detection (Enzyme Research Laboratories, South Bend, IN, USA).
In addition, TNF, IL-1b, IL-6 and tissue factor (TF) were quantified in plasma by immunoassays using a GyroLab workstation (Gyros, Uppsala, Sweden), and the presence of these compounds, as well as IFNγ in biopsies (below) were verified by PCR.
Paraffin sections of porcine kidney tissue were cut (3-5 μm), deparaffinized in xylene and rehydrated with a graded series of ethanol and distilled water. For IHC staining a heat-induced antigen retrieval was performed by boiling the sections in sodium citric buffer (pH 6), the sections were blocked with 10% normal goat serum (Jackson Immunoresearch) before primary antibody incubation: anti-MAC (abcam ab66768); anti-C3b alpha chain (Bioss bs-4873R); anti-C4d (abcam ab64157), anti-C5aR (Acris AP06509PU-N), anti-HO1 (abcam ab52947), anti-CSE (abnova H00001491-M01), anti-Nitrotyrosine (Merck Millipore AB5411), anti-NOS2 (Santa Cruz sc-651), detection was performed by DAKO Real
Detection System alkaline phosphatase red (Dako). The sections were counterstained with Mayer's hematoxylin (Sigma #51275). Control staining was done with a nonspecific rabbit IgG (Dako #X0936). The slides were visualized using a Zeiss Axio Imager A1 microscope with a ×10 objective (100-fold magnification). Intensity of staining was quantified on multiple randomly selected 800,000 μm^2 sections using the AxioVision 4.8 software (Zeiss). Data are presented as mean densitometric sum red.

[2] = system: HLA Class I (antibody W6/32); test: Anti-HLA antibody binding to PEG-phospholipid treated PBMCs, flow cytometry; format: cell-based; settings: freshly isolated human PBMC
Source text: (§1) To test the efficacy of the PEG-phospholipid (SUNBRIGHT®) PP-050CN, N-(methylpolyoxyethylene oxycarbonyl)-1,2-dipalmitoyl-sn-glycero-3-phosphoethanolamine, sodium salt, NOF Corp., Japan) to block binding of anti-HLA antibodies to HLA antigens, similar to in a potential clinical setting, we used human PBMCs from healthy donors to block the HLA antigens.
(§2) • FITC Mouse Anti-Human HLA-ABC; Monoclonal (G46-2.6) (BD Pharmingen) cat no. 555552 • Biotin Mouse Anti-human HLA Class I antibody [W6/32] (Abcam) cat no. ab110665 • PE-streptavidin (BD Pharmingen) cat no. 554061
(§3) PBMC was isolated from whole blood by using Cytiva™ Ficoll-Paque™ PLUS Media (Cytiva 17-1440-02) following standard protocol. In brief, whole blood was diluted in equal volume of PBS and carefully layered on top of Ficoll paque and centrifuged at 800×g for 25 mins. A cloudy layer was separated from the top of Ficoll and washed twice again with PBS.
(§4) The cells were stained with FITC mouse anti-human HLA-ABC monoclonal antibodies and biotin mouse anti-human HLA class | antibody [W6/32] (Abcam) followed by PE-streptavidin. The stained cells were analyzed by Beckman coulter cytoflex S (Biovis, facility, IGP, Rudbeck laboratory).

[3] = system: HLA-ABC (antibody G46-2.6); test: as above; format: cell-based; settings: freshly isolated human PBMC
Source text: as §1, §2, §3, §4

[4] = pig, in vivo
Experimental: Before surgery for both long term survival studies (SM and CLSM), samples were collected in EDTA tubes from both donors and recipients for analyses of total and differential white blood cell counts and hematology (EPK, Hb, EVF, MCV, MCHC, reticulocytes, thrombocytes). Plasma samples were analyzed for aspartate amino transferase (ASAT), alanine aminotransferase (ALAT), γ-glutamyltransferase (GT), glutamate dehydrogenase (GLDH), and creatinine at the Section of Clinical Chemistry, SLU, Uppsala.
Clinical appearance was assessed several times each day after surgery and a thorough clinical examination conducted once daily. The urinary bladders were examined every day at 9 am and […] to determine if the transplanted kidney produced urine. When possible, free-flow urine was collected and evaluated macroscopically, and density, pH, blood and protein were measured.
Each kidney was examined once after transplantation by ultrasound (Logiq e R6, GE Healthcare, Wauwatosa, U.S.A.) using linear (10 MHZ) and curvilinear (4 MHZ) probes. The length and echogenicity of the kidney as well as the corticomedullary definition were estimated. Furthermore, it was assessed whether the renal pelvic region was dilated. The blood flow in the kidney was evaluated using color Doppler. […]

collectin-11 (CL-11) = test: Binding of lectin pathway recognition molecule to coated HUVEC after plasma exposure, flow cytometry; format: cell-based; settings: 0.5 mg/ml, after human plasma exposure
Experimental: (§5) Post analysis processing was carried out in FlowJo.

[5] = system: mannan binding lectin (MBL); test: Binding of lectin pathway recognition molecule to coated HUVEC after serum exposure, flow cytometry; format: cell-based, human; settings: 0.5 mg/ml
Experimental: as §5

[6] = ANSM biopsies, electron microscopy, vs matched individual controls
[7] = ANSM, 1, 60 and 360 min, treated vs non-treated kidneys
[8] = ANSM, 6 h observation, treated vs untreated kidneys
[9] = ANSM, treated vs untreated kidneys

With “N-(methylpolyoxyethylene oxycarbonyl)-1,2-dipalmitoyl-sn-glycero-3-phosphoethanolamine [PEG-phospholipid]” the “binding of Concanavalin A” value (Concanavalin A) was “substantially reduced”, the “cell lysis caused by the PEG-phospholipid molecules” value (red blood cells) was “did not cause any cell lysis” and the “glomerular NETosis (renal NET deposition)” value [1, 6] was “marked decrease”. For the same substance, the “tubular NETosis (renal NET deposition)” value [1, 6] was “marked decrease”, the “HO-1 staining in biopsies” value [1, 7] was “No difference was found” and the “INOS staining in biopsies” value [1, 7] was “No difference was found”. The “nitrotyrosine staining in biopsies” value [1, 7] was “No difference was found”, the “C3a in renal vein blood” value [1, 8] was “substantially lower” and the “FXIla-C1INH in renal vein blood” value [1, 8] was “substantially lower”. For the same substance, the “TAT in renal vein blood” value [1, 8] was “substantially lower”, the “sC5b-9 in renal vein blood” value [1, 8] was “substantially lower” and the “IL-1β mRNA expression in kidney biopsies” value ([1]; ANSM, RT-PCR, vs controls) was “lower”. The “IL-6 mRNA expression in kidney biopsies” value ([1]; ANSM, RT-PCR, vs controls) was “lower”, the “TF mRNA expression in kidney biopsies” value ([1]; ANSM, RT-PCR, vs controls) was “lower” and the “TNF mRNA expression in kidney biopsies” value ([1]; ANSM, RT-PCR, vs controls) was “lower”. For the same substance, the “deposition of NETs in all locations (glomerular, tubular, vascular)” value ([1]; ANSM, n=6) was “highly significant reduction”, the “binding of C3b in kidney biopsies” value [1, 9] was “significantly lower binding” and the “binding of C4d in kidney biopsies” value [1, 9] was “tendency of a lower binding”. The “IL-1β plasma concentration in the renal vein” value ([1]; ANSM, vs controls) was “lower”, the “IL-6 plasma concentration in the renal vein” value ([1]; ANSM, vs controls) was “lower” and the “TF plasma concentration in the renal vein” value ([1]; ANSM, vs controls) was “lower”. For the same substance, the “TNF plasma concentration in the renal vein” value ([1]; ANSM, vs controls) was “lower”, the “time within which fluorescence migrated from the glomeruli to the tubular system” value ([1]; pig, in vivo) was at most 6 h and the “binding of anti-HLA class I antibodies W6/32 to PBMCs” value [2] was “robust inhibition”. The “binding of anti-HLA class I antibodies W6/32 to PBMCs” value ([2]; listed as PEG-phospholipids) was “inhibited”, the “binding of anti-HLA-ABC G46-2.6 to PBMCs” value [3] was “robust inhibition” and the “binding of anti-HLA-ABC G46-2.6 to PBMCs” value ([3]; listed as PEG-phospholipids) was “inhibited”. For the same substance, the “toxicity or safety concerns regarding clinical, laboratory, or pathology parameters” value [4] was “No toxicity or safety concerns”, the “binding of CL-11” value (collectin-11 (CL-11)) was “substantially reduced” and the “decrease of MBL binding from human serum” value [5] was 25-30%.
